PubChem BioAssay (NCI)
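Tested at 5 concentrations; 48 h exposure; 96-well plates; endpoints linearly interpolated, else capped at highest concentration. GI50 = concentration required for 50% inhibition of growth. TGI denotes the concentration required for complete inhibition of growth.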

What was measured:
Experiment in all cases: NCI anticancer screen, dose series, 48 h
COLO 205 colon = test system: COLO 205 colon
HCT-116 colon = test system: HCT-116 colon
HL-60(TB) leukemia = test system: HL-60(TB) leukemia
HOP-62 NSCLC = test system: HOP-62 NSCLC
K-562 leukemia = test system: K-562 leukemia
NCI-H23 lung = test system: NCI-H23 lung
OVCAR-3 ovarian = test system: OVCAR-3 ovarian
SK-MEL-5 melanoma = test system: SK-MEL-5 melanoma
PC-3 prostate = test system: PC-3 prostate
T-47D breast = test system: T-47D breast

| Structure (SMILES) | TGI (COLO 205 colon) [µM] | TGI (HCT-116 colon) [µM] | TGI (HL-60(TB) leukemia) [µM] | TGI (HOP-62 NSCLC) [µM] | TGI (K-562 leukemia) [µM] | TGI (NCI-H23 lung) [µM] | TGI (OVCAR-3 ovarian) [µM] | TGI (SK-MEL-5 melanoma) [µM] | GI50 (COLO 205 colon) [µM] | GI50 (HCT-116 colon) [µM] | GI50 (HL-60(TB) leukemia) [µM] | GI50 (HOP-62 NSCLC) [µM] | GI50 (K-562 leukemia) [µM] | GI50 (NCI-H23 lung) [µM] | GI50 (OVCAR-3 ovarian) [µM] | GI50 (SK-MEL-5 melanoma) [µM] | GI50 (PC-3 prostate) [µM] | TGI (PC-3 prostate) [µM] | GI50 (T-47D breast) [µM] | TGI (T-47D breast) [µM] |
| --- | --- | --- | --- | --- | --- | --- | --- | --- | --- | --- | --- | --- | --- | --- | --- | --- | --- | --- | --- | --- |
| CC1=NN(C(=O)Nc2ccccc2)C(=O)C2CCC(=O)N12 (configuration not stated) | > 100 | > 100 | > 100 | > 100 | > 100 | > 100 | > 100 | > 100 |  |  |  |  |  |  |  |  |  |  |  |  |
| [Cl-].[Dy+3].[O-]/N=C(\c1ccccc1)c1ccccn1.[O-]/N=C(\c1ccccc1)c1ccccn1.[O-]/N=C(\c1ccccc1)c1ccccn1 | > 100 | > 100 | 58.4 | > 100 | > 100 | > 100 | 92.6 | 61.7 | 33.5 | 49.8 | 18.4 | 24.7 | 35.9 | 37.2 | 24.4 | 23.7 |  |  |  |  |
| Nc1nc(Cl)c2ncn(Cc3ccc(C45CC6CC(CC(C6)C4)C5)c(O)c3)c2n1 | 27.8 | 3.15 | 11.7 | 3.77 |  |  | 11.1 | 11 | 5.43 | 1.1 | 1.22 | 1.85 |  |  | 2.32 | 0.558 | 1.73 | 4.44 | 3.75 | 24.5 |
| CC(C)C(=O)NC(=S)Nc1ccc([N+](=O)[O-])cc1C#N | 52.7 | > 100 | > 100 | > 100 | > 100 | > 100 | > 100 | > 100 |  |  |  |  |  |  |  |  |  |  |  |  |
| O=C1CCC2(c3ccc(F)cc3)Nc3cc(Cl)ccc3N12 (configuration not stated) | > 100 | > 100 | > 100 | > 100 | > 100 | > 100 | > 100 | > 100 |  |  |  |  |  |  |  |  |  |  |  |  |
| COc1ccc(/C=C/CN(C)CCc2ccccc2)cc1OC | > 100 | > 100 |  |  | > 100 | > 100 | > 100 | > 100 |  |  |  |  |  |  |  |  |  |  |  |  |
| O=C(O)CNS(=O)(=O)c1ccc(NCc2ccccc2)cc1 | > 100 | > 100 |  | > 100 | > 100 | > 100 |  | > 100 |  |  |  |  |  |  |  |  |  |  |  |  |
| C[C@]12CC[C@H]3[C@@H](CC=C4C[C@@H](O)CC[C@@]43C)[C@@H]1CC[C@@H]2N(CCO)CCO | > 100 | > 100 |  | > 100 | > 100 | > 100 | > 100 | > 100 |  |  |  |  |  |  |  |  |  | > 100 |  | > 100 |
| CSC(C1c2ccccc2N(c2ccc(C)cc2)C2=NC(=O)N(C)C(=O)C21Cl)S(=O)(=O)c1ccc(C)cc1 (configuration not stated) | 36.6 | 25.7 | 12.6 | 43.3 | 53.9 | 46.9 | 30.9 | 32.3 |  |  |  |  |  |  |  |  |  |  |  |  |
| COC(=O)/C(=N/NC(=O)C[N+](C)(C)C)C(C(=O)OC)C(=O)C(=O)Nc1ccc(F)cc1 (configuration not stated) | > 100 | > 100 | > 100 | > 100 | > 100 | > 100 | > 100 | > 100 |  |  |  |  |  |  |  |  |  |  |  |  |
| CCC[CH2][Sn]([CH2]CCC)([O]C(=O)c1cccnc1SC)[O]C(=O)c1cccnc1SC | 2.33 | 2.32 | 1.05 | 4.22 | 0.372 | 2.1 | 2.63 | 2.56 | 1.09 | 1.12 | 0.16 | 2.43 | 0.0482 | 0.771 | 1.33 | 1.27 |  |  |  |  |
| CCCCN=C(NC#N)NCCCC | 98.9 | > 100 |  | > 100 | > 100 | > 100 | > 100 | > 100 |  |  |  |  |  |  |  |  |  |  |  |  |
| COC(=O)C1Cc2c(n(Cc3ccccc3)c3ccccc23)C(CCC(=O)O)N1C(C)C (configuration not stated) | > 100 | > 100 | > 100 |  | > 100 | > 100 | > 100 | > 100 |  |  |  |  |  |  |  |  |  |  |  |  |
| CCOC(=O)[C]1([Bi]([CH3])[CH3])N=NC(C(=O)OC)=C1C(=O)OC (configuration not stated) | 35.9 |  | 52.1 | > 100 | 65.7 | 35 | 31.7 |  | 19.8 |  | 21.2 | > 100 | 16.5 | 18 | 16.5 |  |  |  |  |  |
| O=c1c2cc([N+](=O)[O-])ccc2sc2ccsc12 | > 100 | > 100 | > 100 | > 100 | > 100 | > 100 | > 100 | > 100 |  |  |  |  |  |  |  |  |  |  |  |  |
| CCC(C)c1c(Cl)nc(Cl)nc1Cl (configuration not stated) |  | 17.9 | > 100 | 16 | > 100 | 15.5 | 14.8 | 13 |  |  |  |  |  |  |  |  |  | 44.1 |  |  |
| COC12C=C(C)C(CC1)CC2C(=O)O (configuration not stated) | > 100 | > 100 | > 100 | > 100 | > 100 | > 100 | > 100 | > 100 |  |  |  |  |  |  |  |  |  |  |  |  |
| Oc1ccc(NCc2nc3ccccc3[nH]2)cc1 | > 100 | > 100 | > 100 | 62.2 |  | > 100 | > 100 | > 100 | 69.1 | 41.8 | > 100 | 22.4 |  | 54.5 | 33.8 | 72.4 | 33.6 | > 100 | 31.2 | > 100 |
| CC(=O)CNC(=O)OC(C)(C)C |  | > 100 | > 100 | > 100 | > 100 | > 100 | > 100 | > 100 |  |  |  |  |  |  |  |  |  |  |  |  |
| O=C(/C=C/c1c(O)ccc2ccccc12)c1cccc(O)c1 | > 100 | > 100 | > 64.3 | > 100 | > 100 | > 100 | > 100 | > 100 |  |  |  |  |  |  |  |  |  |  |  |  |
| OCC(O)CC[CH2][Sn]([Br])([c]1ccccc1)[c]1ccccc1 (configuration not stated) | > 100 | > 100 | > 100 | > 100 | > 100 | > 100 | > 100 | > 100 | > 100 | > 100 | 52 | > 100 | > 100 | > 100 | > 100 | > 100 |  |  |  |  |
| COc1ccc(-c2cc(=O)c3c(OC)c(OC)c(OC)cc3o2)cc1 | 51.7 | > 100 | > 100 | 59.8 | > 100 | > 100 | 94.9 | 43.3 |  |  |  |  |  |  |  |  |  |  |  | 62.4 |
